Results published in PubChem BioAssay AID248 (DTP/NCI, 2004).
“And” between values parts separate entries of the source, which are not always exact repeats. Equal values may be shown once. Toxic doses and inconclusive results are not listed.

System: L1210 leukemia ip in BDF1 mice, survival T/C
Experiment: NCI In Vivo Anticancer Drug Screen. Data for tumor model L1210 Leukemia (intraperitoneal) in B6D2F1 (BDF1) mice
Settings: endpoint: mean survival time, higher = longer survival
In short: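 Value reflects the ratio of survival in compound-treated mice to survival in vehicle-treated controls, with both groups carrying the same transplanted tumor.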

[1] = dose: 100.0 mg/kg/injection, schedule: Q01DX001 (ip), vehicle: saline
[2] = dose: 200.0 mg/kg/injection, schedule: Q01DX001 (ip), vehicle: saline
[3] = dose: 400.0 mg/kg/injection, schedule: Q01DX001 (ip), vehicle: saline
[4] = dose: 50.0 mg/kg/injection, schedule: Q01DX009 (ip), vehicle: saline with Tween-80
[5] = dose: 100.0 mg/kg/injection, schedule: Q04DX003 (ip), vehicle: saline with Tween-80
[6] = dose: 100.0 mg/kg/injection, schedule: Q04DX003 (ip), vehicle: Klucel (hydroxypropylcellulose) (HPC)
[7] = dose: 200.0 mg/kg/injection, schedule: Q04DX003 (ip), vehicle: Klucel (hydroxypropylcellulose) (HPC)
[8] = dose: 100.0 mg/kg/injection, schedule: Q01DX009 (ip), vehicle: saline with Tween-80
[9] = dose: 200.0 mg/kg/injection, schedule: Q01DX009 (ip), vehicle: saline with Tween-80
[10] = dose: 100.0 mg/kg/injection, schedule: Q01DX001 (ip), vehicle: carboxymethylcellulose (CMC)
[11] = dose: 200.0 mg/kg/injection, schedule: Q01DX001 (ip), vehicle: carboxymethylcellulose (CMC)
[12] = dose: 400.0 mg/kg/injection, schedule: Q01DX001 (ip), vehicle: carboxymethylcellulose (CMC)

In the case of `Clc1ccc(-c2nnc3c4ccccc4ccn23)cc1`, the T/C [1] is reported as 104 % of control, the T/C [2] is reported as 93 % of control and the T/C [3] is reported as 98 % of control.

For `CC1=CCC=C(CNc2ncnc3nc[nH]c23)C1`, the T/C (dose: 25.0 mg/kg/injection, schedule: Q01DX009 (ip), vehicle: saline with Tween-80) was 95 % of control, the T/C (dose: 25.0 mg/kg/injection, schedule: Q04DX003 (ip), vehicle: saline with Tween-80) was 94 % of control and the T/C [4] was 93 % of control. The T/C (dose: 50.0 mg/kg/injection, schedule: Q04DX003 (ip), vehicle: saline with Tween-80) was 97 % of control and the T/C [5] was 101 % of control.

For `O=C(C=C(C(F)(F)F)C(F)(F)F)c1c2ccccc2cc2ccccc12`, the T/C (dose: 0.18 mg/kg/injection, schedule: Q01DX009 (ip), vehicle: DMSO) was 87 % of control, the T/C (dose: 0.37 mg/kg/injection, schedule: Q01DX009 (ip), vehicle: DMSO) was 99 % of control and the T/C (dose: 0.75 mg/kg/injection, schedule: Q01DX009 (ip), vehicle: DMSO) was 97 % of control. For the same compound, the T/C (dose: 1.5 mg/kg/injection, schedule: Q01DX009 (ip), vehicle: DMSO) was 93 % of control, the T/C (dose: 3.0 mg/kg/injection, schedule: Q01DX009 (ip), vehicle: DMSO) was 93 % of control and 88 % of control and the T/C (dose: 3.0 mg/kg/injection, schedule: Q04DX003 (ip), vehicle: DMSO) was 100 % of control. For the same compound, the T/C (dose: 6.0 mg/kg/injection, schedule: Q04DX003 (ip), vehicle: DMSO) was 98 % of control, the T/C (dose: 12.0 mg/kg/injection, schedule: Q04DX003 (ip), vehicle: DMSO) was 97 % of control and the T/C (dose: 12.5 mg/kg/injection, schedule: Q04DX003 (ip), vehicle: DMSO) was 93 % of control.

`CCCCN(C)/N=N/c1[nH]ncc1C(=O)OCC` was tested, and the T/C (dose: 52.0 mg/kg/injection, schedule: Q01DX009 (ip), vehicle: other) was 119 % of control, the T/C (dose: 78.0 mg/kg/injection, schedule: Q01DX009 (ip), vehicle: other) was 119 % of control and the T/C (dose: 266.0 mg/kg/injection, schedule: Q01DX007 (ip), vehicle: saline) was 154 % of control. For the same compound, the T/C (dose: 266.0 mg/kg/injection, schedule: Q01DX009 (ip), vehicle: other) was 168 % of control and the T/C (dose: 400.0 mg/kg/injection, schedule: Q01DX007 (ip), vehicle: saline) was 174 % of control.

In the case of `O=C(Cc1ccccc1S(=O)(=O)Nc1ccccc1)c1ccccc1`, the T/C (dose: 100.0 mg/kg/injection, schedule: Q01DX001 (ip), vehicle: steriod suspending solution) is reported as 96 % of control, the T/C (dose: 200.0 mg/kg/injection, schedule: Q01DX001 (ip), vehicle: steriod suspending solution) is reported as 86 % of control and the T/C (dose: 400.0 mg/kg/injection, schedule: Q01DX001 (ip), vehicle: steriod suspending solution) is reported as 91 % of control.

In the case of `CCN=C=NCCCN(C)C`, the T/C (dose: 20.0 mg/kg/injection, schedule: Q01DX009 (ip), vehicle: saline) is reported as 107 % of control, the T/C (dose: 20.0 mg/kg/injection, schedule: Q04DX003 (ip), vehicle: saline) is reported as 100 % of control and the T/C (dose: 40.0 mg/kg/injection, schedule: Q01DX009 (ip), vehicle: saline) is reported as 114 % of control. For the same compound, the T/C (dose: 40.0 mg/kg/injection, schedule: Q04DX003 (ip), vehicle: saline) was 109 % of control and the T/C (dose: 80.0 mg/kg/injection, schedule: Q04DX003 (ip), vehicle: saline) was 112 % of control.

With `O=[N+]([O-])c1ccc(C[Se]c2ncnc3c2ncn3C2OC(CO)C(O)C2O)cc1` (stereo unspecified) the T/C (dose: 3.12 mg/kg/injection, schedule: Q01DX009 (ip), vehicle: saline) was 100 % of control, the T/C (dose: 6.25 mg/kg/injection, schedule: Q01DX005 (ip), vehicle: saline) was 106 % of control and the T/C (dose: 6.25 mg/kg/injection, schedule: Q01DX009 (ip), vehicle: saline) was 98 % of control. For the same compound, the T/C (dose: 12.5 mg/kg/injection, schedule: Q01DX005 (ip), vehicle: saline) was 96 % of control, the T/C (dose: 12.5 mg/kg/injection, schedule: Q01DX009 (ip), vehicle: saline) was 98 % of control and the T/C (dose: 12.5 mg/kg/injection, schedule: Q01DX009 (ip), vehicle: water) was 93 % of control. The T/C (dose: 25.0 mg/kg/injection, schedule: Q01DX005 (ip), vehicle: saline) was 109 % of control, the T/C (dose: 25.0 mg/kg/injection, schedule: Q01DX009 (ip), vehicle: saline) was 102 % of control and the T/C (dose: 25.0 mg/kg/injection, schedule: Q01DX009 (ip), vehicle: water) was 98 % of control. The T/C (dose: 50.0 mg/kg/injection, schedule: Q01DX009 (ip), vehicle: water) was 93 % of control.

In the case of `O=[N+]([O-])c1cccnc1Cl`, the T/C (dose: 50.0 mg/kg/injection, schedule: Q01DX009 (ip), vehicle: Klucel (hydroxypropylcellulose) (HPC)) is reported as 107 % of control, the T/C (dose: 100.0 mg/kg/injection, schedule: Q01DX009 (ip), vehicle: Klucel (hydroxypropylcellulose) (HPC)) is reported as 95 % of control and the T/C [6] is reported as 92 % of control. For the same compound, the T/C (dose: 200.0 mg/kg/injection, schedule: Q01DX009 (ip), vehicle: Klucel (hydroxypropylcellulose) (HPC)) was 95 % of control and the T/C [7] was 91 % of control.

`CCOc1cccc2c1OC(COS(=O)(=O)c1ccc(C)cc1)CO2` (stereo unspecified) was tested, and the T/C [1] was 95 % of control, the T/C [2] was 95 % of control and the T/C [3] was 95 % of control.

With `Cc1ccc(S(=O)(=O)CO)cc1` the T/C [4] was 108 % of control, the T/C [8] was 89 % of control and the T/C [9] was 97 % of control.

In the case of `O=C(O)c1c(O)cc(=O)oc1-c1ccc(Cl)cc1`, the T/C [10] is reported as 87 % of control, the T/C [11] is reported as 92 % of control and the T/C [12] is reported as 100 % of control.

For `N#CCCC(C#N)(c1cccnc1)N1CCOCC1` (stereo unspecified), the T/C (dose: 6.25 mg/kg/injection, schedule: Q04DX002 (ip), vehicle: saline with Tween-80) was 98 % of control, the T/C (dose: 12.5 mg/kg/injection, schedule: Q04DX002 (ip), vehicle: saline with Tween-80) was 98 % of control and the T/C (dose: 25.0 mg/kg/injection, schedule: Q04DX002 (ip), vehicle: saline with Tween-80) was 98 % of control.

For `COC(=O)C12COC(=O)C1COC2=O` (stereo unspecified), the T/C (dose: 100.0 mg/kg/injection, schedule: Q04DX003 (ip), vehicle: saline) was 100 % of control, the T/C (dose: 200.0 mg/kg/injection, schedule: Q04DX003 (ip), vehicle: saline) was 98 % of control and the T/C (dose: 400.0 mg/kg/injection, schedule: Q04DX003 (ip), vehicle: saline) was 109 % of control.

`O=C(CNC(=O)Nc1nccs1)NNC(=O)Nc1cccc(C(F)(F)F)c1` was tested, and the T/C [4] was 94 % of control, the T/C [8] was 105 % of control and the T/C [9] was 102 % of control.

In the case of `Cc1ncccc1CO`, the T/C (dose: 100.0 mg/kg/injection, schedule: Q04DX002 (ip), vehicle: gum acacia) is reported as 104 % of control, the T/C (dose: 200.0 mg/kg/injection, schedule: Q04DX002 (ip), vehicle: gum acacia) is reported as 90 % of control and the T/C (dose: 400.0 mg/kg/injection, schedule: Q04DX002 (ip), vehicle: gum acacia) is reported as 87 % of control.

With `CCCCCCCCCCOc1ccc(C2=C(c3ccccc3)C(=O)C(c3ccccc3)=C2c2ccccc2)cc1` the T/C [10] was 100 % of control, the T/C [11] was 105 % of control and the T/C [12] was 94 % of control.

For `COC(=O)CC(Br)CBr` (stereo unspecified), the T/C [10] was 100 % of control and the T/C [11] was 100 % of control.

With `Nc1ncc(Br)cn1` the T/C [5] was 105 % of control, the T/C (dose: 200.0 mg/kg/injection, schedule: Q04DX003 (ip), vehicle: saline with Tween-80) was 100 % of control and the T/C (dose: 400.0 mg/kg/injection, schedule: Q04DX003 (ip), vehicle: saline with Tween-80) was 102 % of control.

For `O=C(O)Cc1ccc(Cl)cc1Cl`, the T/C (dose: 50.0 mg/kg/injection, schedule: Q04DX003 (ip), vehicle: Klucel (hydroxypropylcellulose) (HPC)) was 93 % of control, the T/C [6] was 98 % of control and the T/C [7] was 98 % of control.

For `Nc1nc(N)c(CCCOc2ccccc2Cl)c(N)n1`, the T/C (dose: 100.0 mg/kg/injection, schedule: Q01DX001 (ip), vehicle: Klucel (hydroxypropylcellulose) (HPC)) was 102 % of control and the T/C (dose: 200.0 mg/kg/injection, schedule: Q01DX001 (ip), vehicle: Klucel (hydroxypropylcellulose) (HPC)) was 102 % of control.

With `O=C1c2ccccc2-c2cc(Cl)c([N+](=O)[O-])cc21` the T/C (dose: 50.0 mg/kg/injection, schedule: Q01DX001 (ip), vehicle: carboxymethylcellulose (CMC)) was 98 % of control, the T/C [10] was 96 % of control and the T/C [11] was 98 % of control. The T/C [12] was 91 % of control.

In the case of `Cc1noc(C)c1[N+](=O)[O-]`, the T/C (dose: 75.0 mg/kg/injection, schedule: Q01DX009 (ip), vehicle: saline) is reported as 97 % of control, the T/C (dose: 150.0 mg/kg/injection, schedule: Q01DX009 (ip), vehicle: saline) is reported as 94 % of control and the T/C (dose: 300.0 mg/kg/injection, schedule: Q01DX009 (ip), vehicle: saline) is reported as 101 % of control.
